Data published in PMC9437101, “Curcumin-based-fluorescent probes targeting ALDH1A3 as a promising tool for glioblastoma precision surgery and early diagnosis” (Communications Biology, 2022).
Several values for one entry are separate records, joined by “and”; a condition that tells them apart may be missing. Equal entries are not always repeated. Values belong to the molecule of their own block, whether it stands above or below them.

Key:
ALDH1A1 = biological target: T1, ALDH1A1 (Homo sapiens, UniProt P00352); assay: LC-HRMS analysis of isoenzyme activity in presence of probe; assay type: biochemical; conditions: ALDH1A1, 1 h
T1 construct: E. coli BL21 (DE3) were transformed with the full-length expression vector of each isoform; His-tag; made in house; host or cells: E. coli BL21 (DE3)
T1 sequence (P00352 1-501): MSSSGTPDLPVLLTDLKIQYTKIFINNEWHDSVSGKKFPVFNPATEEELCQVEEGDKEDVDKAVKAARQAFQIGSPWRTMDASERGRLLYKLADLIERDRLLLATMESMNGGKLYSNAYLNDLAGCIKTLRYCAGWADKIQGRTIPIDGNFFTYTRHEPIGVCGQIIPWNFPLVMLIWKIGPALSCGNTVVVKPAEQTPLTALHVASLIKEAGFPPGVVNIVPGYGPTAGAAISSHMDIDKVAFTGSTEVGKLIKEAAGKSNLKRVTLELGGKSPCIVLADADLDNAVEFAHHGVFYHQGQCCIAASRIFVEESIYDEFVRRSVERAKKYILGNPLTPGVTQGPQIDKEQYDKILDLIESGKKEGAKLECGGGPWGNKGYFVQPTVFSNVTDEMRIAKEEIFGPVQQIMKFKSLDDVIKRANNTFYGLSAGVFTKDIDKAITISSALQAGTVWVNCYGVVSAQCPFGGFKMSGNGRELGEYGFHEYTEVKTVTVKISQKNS
Experimental: (§1) These analyses were carried out by using UPLC-HRMS procedure with Vanquish UPLC system coupled to a Thermo Scientific Q-Exactive Plus, operating in negative electrospray ionization mode. The chromatographic separation was carried out using a Phenomenex Synergi 4 µ Polar-RP 80 A (150 × 2 mm) equipped with a Phenomenex Polar-RP (4 mm × 2 mm) security guard column. The mobile phase consisted of A: acetonitrile 0.1% formic acid and B: 0.1% formic acid. We used a linear elution gradient, starting from 80% of A to 5% A in 3 min, 3 min at 5% A, an equilibration of 4 min for a total run time of 10.00 min, at 300 µl/min flow rate. The autosampler temperature was set at 15 °C, the injection volume was 5 µl and column was maintained at 40 °C. The heated electrospray ionization source was used, with a spray voltage of […], with a capillary temperature of 300 °C, a heater temperature of 350 °C, a sheat gas flow of 45 arbitrary units (AU), an auxiliary gas flow of 10 AU and a sweep gas flow of 0 AU. During the Parallel Reaction Monitoring acquisition in negative ion mode, the instrument operated at 17,500 resolution in presence of the inclusion list (m/z = 596.20384 and m/z = 612.19875 for Probe 10 and Probe 10-COOH respectively; m/z = 534.18819 and m/z = 506.156888 for Probe 11 and Probe 11-COOH respectively) with an automatic gain control target of 2 × 10^5 charges and a maximum injection time of 100 ms. Before injecting the samples, the blanks in the list were analyzed and every biological sample was analyzed in duplicate. The biological samples analyzed were as follow: (1) Enzymatic assay Buffer; (2) Enzymatic assay Buffer + NAD^+; (3) Enzymatic assay Buffer + Probe 10 or Probe 11; (4) Enzymatic assay Buffer + ALDH1A1; (5) Enzymatic assay Buffer + ALDH1A2; (6) Enzymatic assay Buffer + ALDH1A3; (7) Enzymatic assay Buffer + ALDH1A1 + Probe 10 or Probe 11; (8) Enzymatic assay Buffer + ALDH1A2 + Probe 10 or Probe 11; (9) Enzymatic assay Buffer + ALDH1A3 + Probe 10 or Probe 11. All samples were diluted 1:1 with ACN, then 1:100 in ACN-Water 1:1 prior the LC-HRMS analysis.

ALDH1A2 = biological target: T2, ALDH1A2 (Homo sapiens, UniProt O94788); assay: as above; assay type: biochemical; conditions: ALDH1A2, 1 h
T2 construct: E. coli BL21 (DE3) were transformed with the full-length expression vector of each isoform; His-tag; made in house; host or cells: E. coli BL21 (DE3)
T2 sequence (O94788 1-518): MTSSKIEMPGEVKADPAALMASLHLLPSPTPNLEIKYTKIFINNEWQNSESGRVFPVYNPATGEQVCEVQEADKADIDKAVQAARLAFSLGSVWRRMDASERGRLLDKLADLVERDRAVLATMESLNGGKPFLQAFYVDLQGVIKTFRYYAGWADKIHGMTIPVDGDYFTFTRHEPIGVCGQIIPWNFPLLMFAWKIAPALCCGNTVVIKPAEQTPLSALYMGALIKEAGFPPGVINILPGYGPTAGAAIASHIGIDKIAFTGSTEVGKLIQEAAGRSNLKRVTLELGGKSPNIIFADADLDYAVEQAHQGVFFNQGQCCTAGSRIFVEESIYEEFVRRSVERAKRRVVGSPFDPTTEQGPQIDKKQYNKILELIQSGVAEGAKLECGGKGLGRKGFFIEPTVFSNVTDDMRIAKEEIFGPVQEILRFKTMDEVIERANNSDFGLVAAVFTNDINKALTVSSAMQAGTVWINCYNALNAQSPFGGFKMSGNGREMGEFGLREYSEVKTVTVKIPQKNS
Experimental: as §1

[1] = LC-HRMS analysis, enzymatic assay buffer + probe without enzyme; conditions: 1 h
Experimental: These analyses were carried out by using UPLC-HRMS procedure with Vanquish UPLC system coupled to a Thermo Scientific Q-Exactive Plus, operating in negative electrospray ionization mode. The chromatographic separation was carried out using a Phenomenex Synergi 4 µ Polar-RP 80 A (150 × 2 mm) equipped with a Phenomenex Polar-RP (4 mm × 2 mm) security guard column. The mobile phase consisted of A: acetonitrile 0.1% formic acid and B: 0.1% formic acid. We used a linear elution gradient, starting from 80% of A to 5% A in 3 min, 3 min at 5% A, an equilibration of 4 min for a total run time of 10.00 min, at 300 µl/min flow rate. The autosampler temperature was set at 15 °C, the injection volume was 5 µl and column was maintained at 40 °C. […] Before injecting the samples, the blanks in the list were analyzed and every biological sample was analyzed in duplicate. The biological samples analyzed were as follow: (1) Enzymatic assay Buffer; (2) Enzymatic assay Buffer + NAD^+; (3) Enzymatic assay Buffer + Probe 10 or Probe 11; (4) Enzymatic assay Buffer + ALDH1A1; (5) Enzymatic assay Buffer + ALDH1A2; (6) Enzymatic assay Buffer + ALDH1A3; (7) Enzymatic assay Buffer + ALDH1A1 + Probe 10 or Probe 11; (8) Enzymatic assay Buffer + ALDH1A2 + Probe 10 or Probe 11; (9) Enzymatic assay Buffer + ALDH1A3 + Probe 10 or Probe 11. […]

[2] = substrate: COc1cc(/C=C/C(O)=C/C(=O)/C=C/c2ccc(OCc3cn(CCOc4ccc(C=O)cc4)nn3)c(OC)c2)ccc1O; assay: KM evaluation, probe as substrate (NADH absorbance 340 nm); assay type: biochemical, human; conditions: other: probe as substrate; pH 8.0; 25.0 °C
Experimental: The catalytic activity of the ALDH1As isoenzymes in complex with probe 10 was tested on a Tecan Sunrise 96 Multiplate Reader with Greiner Bio-One 96-UV-Transparent Microplates. […] Each reaction mix was preincubated for 10 min at 25 °C before the analysis. The catalytic activity was measured by monitoring the absorbance at 340 nm (εNADH = 6220 M^−1 cm^−1) for 12 h at 25 °C and the inhibitory parameters were calculated by processing the raw data on GraphPad.

- AREA TIC of Probe 10-COOH formed from Probe 10 [1]: 0
Molecule: COc1cc(/C=C/C(O)=C/C(=O)/C=C/c2ccc(OCc3cn(CCOc4ccc(C(=O)O)cc4)nn3)c(OC)c2)ccc1O [Probe 10-COOH]
- AREA TIC of Probe 10-COOH formed from Probe 10 (ALDH1A1): 26353656 and 30637066 and 18030552 and 17027138
- AREA TIC of Probe 10-COOH formed from Probe 10 (ALDH1A2): 18647884 and 19590595 and 21767211 and 22597746

B1: ALDH1A1 (Homo sapiens) (protein)
chain: T1 sequence (P00352 1-501)
notes: E. coli BL21 (DE3) were transformed with the full-length expression vector of each isoform; His-tag; made in house; host or cells: E. coli BL21 (DE3)
- Km [2]: 255.2 µM

B2: ALDH1A2 (Homo sapiens) (protein)
chain: T2 sequence (O94788 1-518)
notes: as for B1
- Km [2]: 220.0 µM
